Several values for one entry are separate records, joined by “and”; a condition that tells them apart may be missing. Equal entries are not always repeated.

The nature of the first assay: In vitro agonist activity at kappa opioid receptor in rabbit vas deferens.
With `COC(=O)N1CCN(C(=O)Cc2ccc(Cl)c(Cl)c2)C(CN2CCCC2)C1` (centres undefined) [GR-89696], the IC50 (as a rule, the midpoint of a concentration-inhibition curve) was 0.041 nM and 0.018 nM.

Experiment in the next assay: as above
This is another data set of the same source.
`COCC(=O)N1CCN(C(=O)Cc2ccc(Cl)c(Cl)c2)C(CN2CCCC2)C1` (centres undefined) [2-(3,4-Dichloro-phenyl)-1-[4-(2-methoxy-acetyl)-2-pyrrolidin-1-ylmethyl-piperazin-1-yl]-ethanone] showed an IC50 of 2900 nM.

`O=C(OCc1ccccc1)N1CCN(C(=O)Cc2ccc(Cl)c(Cl)c2)C(CN2CCCC2)C1` (centres undefined) [4-[2-(3,4-Dichloro-phenyl)-acetyl]-3-pyrrolidin-1-ylmethyl-piperazine-1-carboxylic acid benzyl ester] returned an IC50 of 450 nM. In turn, `COC(=O)N1CCN(C(=O)Cc2ccc(Cl)c(Cl)c2)C(CN2CCC(O)C2)C1` (centres undefined) [4-[2-(3,4-Dichloro-phenyl)-acetyl]-3-(3-hydroxy-pyrrolidin-1-ylmethyl)-piperazine-1-carboxylic acid methyl ester] yielded an IC50 of 0.34 nM.

`O=CN1CCN(C(=O)Cc2ccc(Cl)c(Cl)c2)C(CN2CCCC2)C1` (centres undefined) [4-[2-(3,4-Dichloro-phenyl)-acetyl]-3-pyrrolidin-1-ylmethyl-piperazine-1-carbaldehyde]: the half-maximal inhibitory concentration (IC50) is 15 nM. The same measure, in the same setting: the value for `COC(=O)/C=C1\CCN(CC2CN(C(=O)OC)CCN2C(=O)Cc2ccc(Cl)c(Cl)c2)C1` (centres undefined) [4-[2-(3,4-Dichloro-phenyl)-acetyl]-3-(3-methoxycarbonylmethylene-pyrrolidin-1-ylmethyl)-piperazine-1-carboxylic acid methyl ester] was 4 nM. In the case of `CCCC(=O)N1CCN(C(=O)Cc2ccc(Cl)c(Cl)c2)C(CN2CCCC2)C1` (centres undefined) [1-{4-[2-(3,4-Dichloro-phenyl)-acetyl]-3-pyrrolidin-1-ylmethyl-piperazin-1-yl}-butan-1-one], the IC50 was determined as 60 nM. The same measure, in the same setting: the value for `O=C(Cc1ccccc1)N1CCN(C(=O)Cc2ccc(Cl)c(Cl)c2)C(CN2CCCC2)C1` (centres undefined) [2-(3,4-Dichloro-phenyl)-1-(4-phenylacetyl-2-pyrrolidin-1-ylmethyl-piperazin-1-yl)-ethanone] was > 10000 nM; that for `CCC(=O)N1CCN(C(=O)Cc2ccc(Cl)c(Cl)c2)C(CN2CCCC2)C1` (centres undefined) [1-{4-[2-(3,4-Dichloro-phenyl)-acetyl]-3-pyrrolidin-1-ylmethyl-piperazin-1-yl}-propan-1-one] was 6.9 nM. `COC(=O)/C=C1/CCN(CC2CN(C(=O)OC)CCN2C(=O)Cc2ccc(Cl)c(Cl)c2)C1` (centres undefined) [4-[2-(3,4-Dichloro-phenyl)-acetyl]-3-(3-methoxycarbonylmethylene-pyrrolidin-1-ylmethyl)-piperazine-1-carboxylic acid methyl ester] showed an IC50 of 0.28 nM.

The compound `CCCOC(=O)N1CCN(C(=O)Cc2ccc(Cl)c(Cl)c2)C(CN2CCCC2)C1` (centres undefined) [4-[2-(3,4-Dichloro-phenyl)-acetyl]-3-pyrrolidin-1-ylmethyl-piperazine-1-carboxylic acid propyl ester] gave a concentration for half-maximal inhibition (IC50) of 300 nM.

In turn, `COC(=O)N1CCN(C(=O)Cc2ccc(Cl)c(Cl)c2)C(CN2CC=CCC2)C1` (centres undefined) [4-[2-(3,4-Dichloro-phenyl)-acetyl]-3-(3,6-dihydro-2H-pyridin-1-ylmethyl)-piperazine-1-carboxylic acid methyl ester] returned a half-inhibitory concentration (IC50) of 0.04 nM.

Compound `COC(=O)N1CCN(C(=O)Cc2ccc(Cl)c(Cl)c2)C(CN2CCC(=O)C2)C1` (centres undefined) [4-[2-(3,4-Dichloro-phenyl)-acetyl]-3-(3-oxo-pyrrolidin-1-ylmethyl)-piperazine-1-carboxylic acid methyl ester] yielded an IC50 of 0.34 nM. Same read-out and setting: the same measure for `O=C(c1ccccc1)N1CCN(C(=O)Cc2ccc(Cl)c(Cl)c2)C(CN2CCCC2)C1` (centres undefined) [1-(4-Benzoyl-2-pyrrolidin-1-ylmethyl-piperazin-1-yl)-2-(3,4-dichloro-phenyl)-ethanone]: > 10000 nM.

`CCOC(=O)N1CCN(C(=O)Cc2ccc(Cl)c(Cl)c2)C(CN2CCCC2)C1` (centres undefined) [4-[2-(3,4-Dichloro-phenyl)-acetyl]-3-pyrrolidin-1-ylmethyl-piperazine-1-carboxylic acid ethyl ester]: the 50% inhibitory concentration (IC50) was 3.5 nM. On the same count and under the same terms, the value for `C=CC(=O)N1CCN(C(=O)Cc2ccc(Cl)c(Cl)c2)C(CN2CCCC2)C1` (centres undefined) [1-{4-[2-(3,4-Dichloro-phenyl)-acetyl]-3-pyrrolidin-1-ylmethyl-piperazin-1-yl}-propenone] was 0.42 nM; that for `CC(=O)N1CCN(C(=O)Cc2ccc(Cl)c(Cl)c2)C(CN2CCCC2)C1` (centres undefined) [1-(4-Acetyl-2-pyrrolidin-1-ylmethyl-piperazin-1-yl)-2-(3,4-dichloro-phenyl)-ethanone] was 10 nM; that for `O=C(Oc1ccccc1)N1CCN(C(=O)Cc2ccc(Cl)c(Cl)c2)C(CN2CCCC2)C1` (centres undefined) [4-[2-(3,4-Dichloro-phenyl)-acetyl]-3-pyrrolidin-1-ylmethyl-piperazine-1-carboxylic acid phenyl ester] was > 10000 nM. Still for that read-out and setting: the value for `COC(=O)N1CCN(C(=O)Cc2ccc(Cl)c(Cl)c2)C(CN(C)C)C1` (centres undefined) [4-[2-(3,4-Dichloro-phenyl)-acetyl]-3-dimethylaminomethyl-piperazine-1-carboxylic acid methyl ester] was 1.2 nM.

These data come from BindingDB's records for doi:10.1021/jm00067a004 (Glaxo Group Research, 1993).
